Read-outs that look alike come from different tables or passages of the source.
Columns and labels:
[1] = target: FLNA pentapeptide of SEQ ID NO: 1 (Bn-VAKGL) (Homo sapiens, UniProt P21333); assay: FITC-NLX-based FLNA screening assay (inhibition of FITC-naloxone binding to Bn-VAKGL on streptavidin plates); conditions: 10 nM FITC-NLX
mu opiate receptor (MOR) = assay: MOR agonist activity using [35S]GTPγS binding assay in striatal membranes; type: biochemical; conditions: for MOR agonist activity ([35S]GTPγS binding), FLNA-Binding Compound as Agonist 1 μM + BFNA: 1 μM compound + 1 μM β-funaltrexamine
Method in brief: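 Striatal membranes (200 μg) were preincubated 5 min at 30 °C in HEPES pH 7.5 with 100 mM NaCl, 1 mM MgCl2 and 0.5 nM [35S]GTPγS, then 5 min more with 0.1–10 μM compound. Gαo was immunoprecipitated and bound radioactivity counted by scintillation.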

[2] = FLNA-binding compound 0.01 μM, read-out: Percent Binding Inhibition
[3] = FLNA-binding compound 0.1 μM, read-out: Percent Binding Inhibition
[4] = FLNA-binding compound 1 μM, read-out: Percent Binding Inhibition
[5] = 0.1 μM compound relative to DAMGO
[6] = 1 μM compound + BFNA relative to DAMGO + BFNA
[7] = 1 μM compound relative to DAMGO
[8] = read-out: Percent Binding Inhibition, FLNA-binding compound 0.01 μM
[9] = read-out: Percent Binding Inhibition, FLNA-binding compound 0.1 μM
[10] = read-out: Percent Binding Inhibition, FLNA-binding compound 1 μM
[11] = Series C-1, 0.1 μM compound, relative to DAMGO
[12] = Series C-1, 0.1 μM compound, [35S]GTPγS binding to Gαo, striatal membranes
[13] = Series C-1, 1 μM compound + 1 μM β-FNA
[14] = Series C-1, 1 μM compound + β-FNA, relative to DAMGO + BFNA
[15] = Series C-1, 1 μM compound, relative to DAMGO
[16] = Series C-1, 1 μM compound, [35S]GTPγS binding to Gαo, striatal membranes

Structure (SMILES)	inhibition at 0.01 µM [1, 8]	inhibition at 0.1 µM [1, 9]	inhibition at 1 µM [1, 10]	% DAMGO (0.1 μM) (mu opiate receptor (MOR); [11])	Concentration of FLNA-Binding Compound as Agonist 0.1 μM (mu opiate receptor (MOR); [12])	Concentration of FLNA-Binding Compound as Agonist 1 μM + BFNA (mu opiate receptor (MOR); [13])	% DAMGO + BFNA (mu opiate receptor (MOR); [14])	% DAMGO (1 μM) (mu opiate receptor (MOR); [15])	Concentration of FLNA-Binding Compound as Agonist 1 μM (mu opiate receptor (MOR); [16])	further results
CC(=O)c1ccc(OCC(O)CN2CC(C)OC(C)C2)cc1 (stereo not drawn) [Compound A0044]	–	–	–	–	–	–	–	–	–	inhibition at 0.01 µM [1, 2]: 32.4%; inhibition at 0.1 µM [1, 3]: 36.9%; inhibition at 1 µM [1, 4]: 39.6%; MOR agonist activity ([35S]GTPγS binding), FLNA-Binding Compound as Agonist 0.1 μM (mu opiate receptor (MOR); 0.1 μM compound): 176.2%; % DAMGO (0.1 μM) (mu opiate receptor (MOR); [5]): 89.8%; MOR agonist activity ([35S]GTPγS binding), FLNA-Binding Compound as Agonist 1 μM (mu opiate receptor (MOR); 1 μM compound): 209.1%; MOR agonist activity ([35S]GTPγS binding), FLNA-Binding Compound as Agonist 1 μM + BFNA (mu opiate receptor (MOR)): 134.7%; % DAMGO + BFNA (mu opiate receptor (MOR); [6]): 182.3%; % DAMGO (1 μM) (mu opiate receptor (MOR); [7]): 75.8%
O=S(=O)(c1ccccc1)N1CCC2(CC1)OCCN2S(=O)(=O)c1ccccc1 [Compound C0016]	38.3%	43.8%	49.1%	100.4%	172.7%	96.7%	150.9%	83.3%	230.5%	–
COc1ccc(C(=O)N2CCOC23CCN(S(=O)(=O)c2ccc(OC)cc2)CC3)cc1 [Compound C0019]	30.1%	38.2%	43.6%	59.1%	104.4%	52.8%	80.4%	68.1%	176.6%	–
CC(O)c1ccc(S(=O)(=O)N2CCC3(CC2)OCCN3S(=O)(=O)c2ccc(C(C)O)cc2)cc1 (stereo not drawn) [Compound C0051]	27%	30.4%	36.4%	65.1%	94.4%	55.9%	127.0%	73.1%	170.4%	–
COc1ccc(OC)c(CCC(=O)CC2c3c(cc4c(c3OC)OCO4)CC[N+]2(C)C)c1 (stereo not drawn) [Compound B0044]	35.2%	39.5%	44.4%	–	–	–	–	–	–	% DAMGO (0.1 μM) (mu opiate receptor (MOR); Series B, 0.1 μM compound, relative to DAMGO): 49.4%; MOR agonist activity, percent [35S]GTPγS binding at the stated compound concentration (mu opiate receptor (MOR); Series B, 0.1 μM compound, [35S]GTPγS binding to Gαo, striatal membranes): 87.3%; MOR agonist activity, percent [35S]GTPγS binding at the stated compound concentration (mu opiate receptor (MOR); Series B, 1 μM compound + 1 μM β-FNA): 134.6%; % DAMGO + BFNA (mu opiate receptor (MOR); Series B, 1 μM compound + β-FNA, relative to DAMGO + BFNA): 511.8%; % DAMGO (1 μM) (mu opiate receptor (MOR); Series B, 1 μM compound, relative to DAMGO): 66.9%; MOR agonist activity, percent [35S]GTPγS binding at the stated compound concentration (mu opiate receptor (MOR); Series B, 1 μM compound, [35S]GTPγS binding to Gαo, striatal membranes): 170.0%
CC1CCC(C(C)C)C(OCC(O)CN2CCOCC2)C1 (stereo not drawn) [Compound A0004]	–	–	–	–	–	–	–	–	–	inhibition at 0.01 µM [1, 2]: 40%; inhibition at 0.1 µM [1, 3]: 43.7%; inhibition at 1 µM [1, 4]: 47.6%; MOR agonist activity ([35S]GTPγS binding), FLNA-Binding Compound as Agonist 0.1 μM (mu opiate receptor (MOR); 0.1 μM compound): 97.4%; % DAMGO (0.1 μM) (mu opiate receptor (MOR); [5]): 55.2%; MOR agonist activity ([35S]GTPγS binding), FLNA-Binding Compound as Agonist 1 μM (mu opiate receptor (MOR); 1 μM compound): 144.2%; MOR agonist activity ([35S]GTPγS binding), FLNA-Binding Compound as Agonist 1 μM + BFNA (mu opiate receptor (MOR)): 86.0%; % DAMGO + BFNA (mu opiate receptor (MOR); [6]): 130.9%; % DAMGO (1 μM) (mu opiate receptor (MOR); [7]): 55.6%
O=S(=O)(c1ccc(Br)cc1)N1CCC2(CC1)OCCN2S(=O)(=O)c1ccc(Br)cc1 [Compound C0025]	37.2%	41.4%	45.1%	122.6%	235.7%	80.2%	182.7%	117.5%	320.7%	–

Reference: patent US10363239B2, “Method for inhibiting growth of cancer cells” (Pain Therapeutics, Inc., priority 2013, dated 2019)
